Assay results reported in patent publication US6416979B1, “5-substituted picolinic acid compounds production by Marasmiellus sp” (Pfizer Inc., priority 1997, dated 2002).

What was measured:
TNF production = experiment: TNF Bioassay (LPS-stimulated human whole blood, TNF titer with L929 cells); format: cell-based; settings: heparinised human whole blood diluted four-fold, 10 μg/ml LPS, 37° C., 4 h; standard in vitro protocol
Procedure: (§1) Heparinised human whole blood diluted four-fold with RPMI medium was incubated with 10 μg/ml of Lipopolysaccharide (LPS) in the presence of various concentrations of samples at 37° C. in a humidified atmosphere containing 5% CO2 for 4 h. The TNF titer in the supernatants was determined with L929 cells which were destroyed by TNF quantitatively. L929 cells (2.5×10^4 cells) in 90 μl of E-MEM medium containing 1% fetal calf serum and 0.5 μg/ml of actinomycin D were placed in wells of 96-well microplates (flat-bottom). Ten μl of the supernatants was added to each well and incubated at 37° C. in a humidified atmosphere containing 5% CO2. After 18 h, the plates were rinsed with 0.9% sterile saline and stained for 10 min with 0.4% crystal violet in MeOH. The plates were washed with distilled water and were dried by air. Fifty μl of methanol was added to each well to elute the crystal violet, and the plates were read on a microplate reader (model 3550, BIO-RAD) at 595 nm. TNF production inhibitory activity is calculated by the formula: [formula]

IL-1 production = experiment: IL-1 Bioassay (supernatants of LPS-stimulated human whole blood, specific ELISA); format: cell-based; settings: heparinised human whole blood diluted four-fold, 10 μg/ml LPS, 37° C., 4 h, standard in vitro protocol
Procedure: as §1
The supernatants prepared by the same method as TNF bioassay were analyzed IL-1 titer by commercially available specific ELISA system. The plates were read on a microplate reader (model 3550, BIO-RAD) at 490 nm. IL-1 production inhibitory activity is calculated by the formula: [formula]

Row | SMILES | TNF biosynthesis inhibitory activities (TNF production) | IL-1 biosynthesis inhibitory activities (IL-1 production)
1 | CC(O)C(O)c1ccc(-c2nnnn2C)nc1 (centres unmarked) [5-(1,2-di-hydroxypropyl)-2-(1-methyl-1H-1,2,3,4-tetrazol-5-yl)pyridine] | found to have the IL-1 and TNF biosynthesis inhibitory activities | found to have the IL-1 and TNF biosynthesis inhibitory activities
2 | CC(O)C(O)c1ccc(-c2nnn(C)n2)nc1 (centres unmarked) [5-(1,2-di-hydroxypropyl)-2-(2-methyl-2H-1,2,3,4-tetrazol-5-yl)pyridine] | found to have the IL-1 and TNF biosynthesis inhibitory activities | found to have the IL-1 and TNF biosynthesis inhibitory activities
3 | CC(O)C(O)c1ccc(C#N)nc1 (centres unmarked) [5-(1,2-dihydroxypropyl)-2-pyridinecarbonitrile] | found to have the IL-1 and TNF biosynthesis inhibitory activities | found to have the IL-1 and TNF biosynthesis inhibitory activities
4 | CC(O)C(O)c1ccc(C(N)=O)nc1 (centres unmarked) [5-(1,2-dihydroxypropyl)-2-pyridinecarboxamide] | found to have the IL-1 and TNF biosynthesis inhibitory activities | found to have the IL-1 and TNF biosynthesis inhibitory activities
5 | CC(O)C(O)c1ccc(C(=O)O)nc1 (centres unmarked) [5-(1,2-dihydroxypropyl)-2-pyridinecarboxylic acid] | found to have the IL-1 and TNF biosynthesis inhibitory activities | found to have the IL-1 and TNF biosynthesis inhibitory activities
6 | CC(O)C(O)c1ccc(C(=O)N(C)C)nc1 (centres unmarked) [5-(1,2-dihydroxypropyl)-N,N-di-methyl-2-pyridinecarboxamide] | found to have the IL-1 and TNF biosynthesis inhibitory activities | found to have the IL-1 and TNF biosynthesis inhibitory activities
7 | COC(=O)c1ccc(C(OC(=O)c2ccc(Br)cc2)C(C)OC(=O)c2ccc(Br)cc2)cn1 (centres unmarked) [methyl 5-(1,2-di-p-bromobenzoyloxypropyl)-2-pyridinecarboxylate] | found to have the IL-1 and TNF biosynthesis inhibitory activities | found to have the IL-1 and TNF biosynthesis inhibitory activities
8 | COC(=O)c1ccc(C(OC(C)=O)C(C)OC(C)=O)cn1 (centres unmarked) [methyl 5-(1,2-diacetoxypropyl)-2-pyridinecarboxylate] | found to have the IL-1 and TNF biosynthesis inhibitory activities | found to have the IL-1 and TNF biosynthesis inhibitory activities
9 | COC(=O)c1ccc(C(O)C(C)O)cn1 (centres unmarked) [methyl 5-(1,2-dihydroxypropyl)-2-pyridinecarboxylate] | found to have the IL-1 and TNF biosynthesis inhibitory activities | found to have the IL-1 and TNF biosynthesis inhibitory activities
10 | COC(=O)c1ccc(C(OC(C)=O)C(C)O)cn1 (centres unmarked) [methyl 5-(1-acetoxy-2-hydroxypropyl)-2-pyridinecarboxylate] | found to have the IL-1 and TNF biosynthesis inhibitory activities | found to have the IL-1 and TNF biosynthesis inhibitory activities
